Measurements published in patent publication US11013784B2 (priority 2015, dated 2021).

Test system: SKOV3-Luc ovarian tumor cells
Format: cell-based, human

Structure (SMILES): N.N.[Cl][Pt][Cl] [cisplatin]
- IC50: 230 µM
